Measurements taken from US9029076B2, “Tissue preservation and fixation method” (George Mason Research Foundation, Inc., priority 2006, dated 2015).

Tests used:
phosphoproteins [1] = experiment: Overall phosphoprotein preservation of FNA / tumor needle samples stored 24 h at 4° C.; details: compared to directly lysed cell baseline
Protocol: Fine Needle Aspirate (FNA) samples were stored for 24 hours at 4° C. in each of the chemicals/chemical solutions. The cellular samples were further processed for reverse phase protein microarray analysis. […] Each set of 4 horizontal spots by 2 vertical spots represent an original and its replicate sample, printed on the array in two-fold dilutions, for each FNA sample. The dilution series represents undiluted, 1:2, 1:4 and 1:8 dilutions of each sample.
A variety of types of tumor tissues were incubated in a series of conventional preservatives to determine if the preservatives were able to stabilize selected phosphoproteins.

AKT Thr308 = experiment: RPA phosphoprotein level after 24 h storage of tumor needle samples in preservatives; details: 24 h in preservative at 4° C., relative normalized RPA intensity
Protocol: (§1) The RPA format, originated by the present inventors and collaborators (see, e.g., Paweletz et al. (2001) Oncogene 20, 1981-1989), immobilizes an individual test sample in a miniature dilution curve such that an array contains hundreds of different patient samples, treatments, or time points. In the RPA format, each array is incubated with one detection protein (e.g. anti-peptide antibody), and a single analyte endpoint is measured and directly compared across multiple samples. Briefly, the lysates are printed on glass backed nitrocellulose array slides (FAST Slides Whatman, Florham Park, N.J. or ONCYTE slides Grace BioLabs, Bend, Oreg.) using a robotic array printing device (GMS 417 arrayer (Affymetrix, Santa Clara, Calif. or Aushon 2470, Aushon Biosystems, Burlington, Mass. equipped with 125-500 μm pins). Each lysate is printed in a dilution curve representing neat, 1:2, 1:4, 1:8, 1:16 and negative control dilutions. The slides are stored with desiccant (Drierite, W. A. Hammond, Xenia, Ohio) at −20° C. prior to immunostaining.
(§2) Immunostaining is performed on an automated slide stainer per manufacturer's instructions (Autostainer CSA kit, Dako, Carpinteria, Calif.). Each slide is incubated with a single primary antibody at room temperature for 30 minutes. Polyclonal primary antibodies can be, e.g.: GSK3α/β Tyr279/216 (Invitrogen-Biosource, Carlsbad, Calif.), BCL-2, HIF-1α (BD, Franklin Lakes, N.J.), 4EBP1, FKHR ser256, eIF4E, eIF4E ser209, eIF4G, eIF4G ser1108, IGFR-β, IRS-1, IRS-2, IRS-1 ser612, SGK, Bak, Bax, BAD, BAD ser112, BAD ser136, BAD ser155, B-Raf, mTOR, mTOR ser2448, p70S6 Thr389, p70S6 kinase, p70S6 ser371, S6 kinase ser240/244, Akt, Akt ser473, Akt Thr308, 4EBP1 ser65, 4EBP1 ser70, and 4EBP1 Thr37/46 (Cell Signaling Technology, Danvers, Mass.). A negative control slide is incubated with antibody diluent. Secondary antibody can be goat anti-rabbit IgG H+L (1:5000) (Vector Labs, Burlingame, Calif.).
(§3) Each array is scanned, spot intensity analyzed, data normalized, and a standardized, single data value can be generated for each sample on the array (Image Quant v5.2, GE Healthcare, Piscataway, N.J.) or MicroVigene v2.8, Vigene Tech, Billerica, Mass.). Spot intensity is integrated over a fixed area. Local area background intensity is calculated for each spot with the unprinted adjacent slide background. […] The Ward method for two-way hierarchical clustering can be performed using JMP v5.0 (SAS Institute, Cary N.C.). Wilcoxon two-sample rank sum test can be used to compare values between two groups. P values less than 0.05 are considered significant. When one cannot assume a normal distribution of the variables, non-parametric methods are used. Kaplan-Meier (log-rank) survival estimates for univariate survival analysis can be used.
(§4) Briefly, tumor tissues from gastrinoma/liver, mesothelioma and parathyroid tumors were sampled by five needle passes and placed into the preservatives listed in Table 5. […] Immediate lysis and denaturation of the cellular proteins were accomplished by standard Pierce Tissue Protein Extraction Buffer (T-PER), with additional SDS, denaturing reagents, and detergents. The cell samples were stored 24 h in the listed preservatives at 4° C. and then the listed phosphoprotein endpoints were measured. […] Some values dropped to zero while others are markedly elevated compared to the freshly lysed cell baseline. […] They were unable to stabilize the phosphorylation state of key signal proteins over a storage period of 24 hours, which is a typical time delay for cell or tissue shipment. Numbers in the table are relative normalized intensity values using the RPA technology described herein.

AKT ser473 = experiment: as above; details: 24 h in preservative at 4° C., relative normalized RPA intensity
Protocol: as §1, §2, §3, §4

CC3 Asp175 = experiment: as above; details: 24 h in preservative at 4° C., relative normalized RPA intensity
Protocol: as §1, §2, §3, §4

CREB ser133 = experiment: as above; details: 24 h in preservative at 4° C., relative normalized RPA intensity
Protocol: as §1, §2, §3, §4

EGFR Y1148 = experiment: as above; details: 24 h in preservative at 4° C., relative normalized RPA intensity
Protocol: as §1, §2, §3, §4

ERK T202/Y204 = experiment: as above; details: 24 h in preservative at 4° C., relative normalized RPA intensity
Protocol: as §1, §2, §3, §4

GSK3ab ser21/9 = experiment: as above; details: 24 h in preservative at 4° C., relative normalized RPA intensity
Protocol: as §1, §2, §3, §4

IKappa-Ba ser32 = experiment: as above; details: 24 h in preservative at 4° C., relative normalized RPA intensity
Protocol: as §1, §2, §3, §4

IRS-1 ser612 = experiment: as above; details: 24 h in preservative at 4° C., relative normalized RPA intensity
Protocol: as §1, §2, §3, §4

p38 T180/182 = experiment: as above; details: 24 h in preservative at 4° C., relative normalized RPA intensity
Protocol: as §1, §2, §3, §4

phosphoproteins [2] = details: for phosphoprotein endpoints, room temperature shipping in fixative versus snap frozen: real time, room temperature shipping conditions, FIGS. 6A, 6B and 7
[3] = Gastrinoma/liver tumor, Lysis Buffer = frozen immediately after lysis
[4] = Parathyroid tumor, Lysis Buffer = frozen immediately after lysis

Structure (SMILES)	AKT Thr308 Normalized data (AKT Thr308; [3])	AKT Thr308 Normalized data (AKT Thr308; Mesothelioma)	AKT Thr308 Normalized data (AKT Thr308; [4])	AKT ser473 Normalized data (AKT ser473; [3])	AKT ser473 Normalized data (AKT ser473; Mesothelioma)	AKT ser473 Normalized data (AKT ser473; [4])	CC3 Asp175 Normalized data (CC3 Asp175; [3])	CC3 Asp175 Normalized data (CC3 Asp175; Mesothelioma)	CC3 Asp175 Normalized data (CC3 Asp175; [4])	CREBser133 Normalized data (CREB ser133; [3])	CREBser133 Normalized data (CREB ser133; Mesothelioma)	CREBser133 Normalized data (CREB ser133; [4])	EGFR Y1148 Normalized data (EGFR Y1148; [3])	EGFR Y1148 Normalized data (EGFR Y1148; Mesothelioma)	EGFR Y1148 Normalized data (EGFR Y1148; [4])	ERK T202/Y204 Normalized data (ERK T202/Y204; [3])	ERK T202/Y204 Normalized data (ERK T202/Y204; Mesothelioma)	ERK T202/Y204 Normalized data (ERK T202/Y204; [4])	GSK3ab ser21/9 Normalized data (GSK3ab ser21/9; [3])	GSK3ab ser21/9 Normalized data (GSK3ab ser21/9; Mesothelioma)	also measured
CCO [ethanol]	–	–	–	–	–	–	–	–	–	–	–	–	–	–	–	–	–	–	–	–	preservation of phosphoproteins overall (phosphoproteins [1]): do not adequately preserve the phosphoproteins
OC[C@H]1O[C@H](O[C@H]2O[C@H](CO)[C@@H](O)[C@H](O)[C@H]2O)[C@H](O)[C@@H](O)[C@@H]1O [15% trehalose, Trehalose]	19.93	0.95	5.38	0.00	7.86	0.26	11.19	6.82	7.76	55.11	10.01	21.50	95.78	21.03	26.55	17.01	0.00	9.34	32.18	7.80	GSK3ab ser21/9 Normalized data (GSK3ab ser21/9; [4]): 10.36; IKappa-Ba ser32 Normalized data (IKappa-Ba ser32; [3]): 32.99; IKappa-Ba ser32 Normalized data (IKappa-Ba ser32; Mesothelioma): 13.29; IKappa-Ba ser32 Normalized data (IKappa-Ba ser32; [4]): 24.12; IRS-1 ser612 Normalized data (IRS-1 ser612; [3]): 25.51; IRS-1 ser612 Normalized data (IRS-1 ser612; Mesothelioma): 0.00; IRS-1 ser612 Normalized data (IRS-1 ser612; [4]): 0.05; p38 T180/182 Normalized data (p38 T180/182; [3]): 36.95; p38 T180/182 Normalized data (p38 T180/182; Mesothelioma): 7.39; p38 T180/182 Normalized data (p38 T180/182; [4]): 30.53
CO [Methanol]	43.73	32.75	28.31	4.15	11.14	11.06	37.64	16.93	14.80	131.23	114.37	65.44	81.50	63.00	53.41	46.47	18.87	28.54	33.59	66.02	GSK3ab ser21/9 Normalized data (GSK3ab ser21/9; [4]): 53.28; IKappa-Ba ser32 Normalized data (IKappa-Ba ser32; [3]): 54.98; IKappa-Ba ser32 Normalized data (IKappa-Ba ser32; Mesothelioma): 41.23; IKappa-Ba ser32 Normalized data (IKappa-Ba ser32; [4]): 36.25; IRS-1 ser612 Normalized data (IRS-1 ser612; [3]): 65.97; IRS-1 ser612 Normalized data (IRS-1 ser612; Mesothelioma): 37.33; IRS-1 ser612 Normalized data (IRS-1 ser612; [4]): 23.51; p38 T180/182 Normalized data (p38 T180/182; [3]): 76.09; p38 T180/182 Normalized data (p38 T180/182; Mesothelioma): 53.36; p38 T180/182 Normalized data (p38 T180/182; [4]): 34.09
CO [methanol: water, methanol]	–	–	–	–	–	–	–	–	–	–	–	–	–	–	–	–	–	–	–	–	RPA spot intensities, fixed versus frozen tissue (phosphoproteins [2]; FIG. 6A): equivalent spot intensities; phosphoprotein endpoints, room temperature shipping in fixative versus snap frozen (phosphoproteins [2]): equivalence of the two methods
CC(C)=O [Acetone]	25.45	30.05	21.93	4.56	27.53	13.12	38.23	26.75	29.46	91.79	83.10	83.74	65.10	49.89	81.36	46.15	55.31	77.97	35.47	55.72	GSK3ab ser21/9 Normalized data (GSK3ab ser21/9; [4]): 123.00; IKappa-Ba ser32 Normalized data (IKappa-Ba ser32; [3]): 48.91; IKappa-Ba ser32 Normalized data (IKappa-Ba ser32; Mesothelioma): 36.08; IKappa-Ba ser32 Normalized data (IKappa-Ba ser32; [4]): 49.65; IRS-1 ser612 Normalized data (IRS-1 ser612; [3]): 33.10; IRS-1 ser612 Normalized data (IRS-1 ser612; Mesothelioma): 10.72; IRS-1 ser612 Normalized data (IRS-1 ser612; [4]): 40.55; p38 T180/182 Normalized data (p38 T180/182; [3]): 77.58; p38 T180/182 Normalized data (p38 T180/182; Mesothelioma): 87.57; p38 T180/182 Normalized data (p38 T180/182; [4]): 72.96
OC[C@H]1O[C@@](CO)(O[C@H]2O[C@H](CO)[C@@H](O)[C@H](O)[C@H]2O)[C@@H](O)[C@@H]1O [30% sucrose, sucrose]	42.04	12.13	0.00	16.16	19.36	3.27	61.02	17.90	2.23	69.03	22.82	2.09	65.97	22.84	6.14	48.68	15.67	1.15	37.27	3.12	GSK3ab ser21/9 Normalized data (GSK3ab ser21/9; [4]): 0.00; IKappa-Ba ser32 Normalized data (IKappa-Ba ser32; [3]): 69.82; IKappa-Ba ser32 Normalized data (IKappa-Ba ser32; Mesothelioma): 0.00; IKappa-Ba ser32 Normalized data (IKappa-Ba ser32; [4]): 0.33; IRS-1 ser612 Normalized data (IRS-1 ser612; [3]): 31.46; IRS-1 ser612 Normalized data (IRS-1 ser612; Mesothelioma): 1.84; IRS-1 ser612 Normalized data (IRS-1 ser612; [4]): 0.00; p38 T180/182 Normalized data (p38 T180/182; [3]): 63.91; p38 T180/182 Normalized data (p38 T180/182; Mesothelioma): 28.71; p38 T180/182 Normalized data (p38 T180/182; [4]): 1.15
[Cl-].[Na+] [0.9% saline, sodium chloride]	9.73	8.97	0.00	3.76	9.78	1.84	14.57	10.85	5.46	24.09	17.20	5.35	39.76	24.62	6.57	10.75	7.72	0.00	12.25	9.46	GSK3ab ser21/9 Normalized data (GSK3ab ser21/9; [4]): 0.00; IKappa-Ba ser32 Normalized data (IKappa-Ba ser32; [3]): 29.64; IKappa-Ba ser32 Normalized data (IKappa-Ba ser32; Mesothelioma): 16.87; IKappa-Ba ser32 Normalized data (IKappa-Ba ser32; [4]): 1.87; IRS-1 ser612 Normalized data (IRS-1 ser612; [3]): 4.82; IRS-1 ser612 Normalized data (IRS-1 ser612; Mesothelioma): 2.34; IRS-1 ser612 Normalized data (IRS-1 ser612; [4]): 0.00; p38 T180/182 Normalized data (p38 T180/182; [3]): 33.41; p38 T180/182 Normalized data (p38 T180/182; Mesothelioma): 26.34; p38 T180/182 Normalized data (p38 T180/182; [4]): 4.79
CCO [ethanol:water, ethanol]	–	–	–	–	–	–	–	–	–	–	–	–	–	–	–	–	–	–	–	–	phosphoprotein endpoints, room temperature shipping in fixative versus snap frozen (phosphoproteins [2]): equivalence of the two methods
